# In US5795907A, “Gastin and CCK receptor ligands” (James Black Foundation Limited, priority 1994, dated 1998):
# How the values were obtained:
# CCKB receptor = molecular target: T1, CCKB receptor (Mus musculus, UniProt P56481); experiment: CCKB receptor radioligand binding assay in mouse cortical membranes ([125I]-CCK8S); conditions: [125I]-CCK8S 200 pM, 150 min at 21±3°; for Ki: read-out: CCKB pKi (converted)
# T1 construct: The cortex was dissected, weighed and homogenised in 40ml ice-cold buffer; tissue Charles River (supplier of the CD1 mice); host or cells: cerebral cortex membranes of male CD1 mice
# T1 sequence (P56481 1-453): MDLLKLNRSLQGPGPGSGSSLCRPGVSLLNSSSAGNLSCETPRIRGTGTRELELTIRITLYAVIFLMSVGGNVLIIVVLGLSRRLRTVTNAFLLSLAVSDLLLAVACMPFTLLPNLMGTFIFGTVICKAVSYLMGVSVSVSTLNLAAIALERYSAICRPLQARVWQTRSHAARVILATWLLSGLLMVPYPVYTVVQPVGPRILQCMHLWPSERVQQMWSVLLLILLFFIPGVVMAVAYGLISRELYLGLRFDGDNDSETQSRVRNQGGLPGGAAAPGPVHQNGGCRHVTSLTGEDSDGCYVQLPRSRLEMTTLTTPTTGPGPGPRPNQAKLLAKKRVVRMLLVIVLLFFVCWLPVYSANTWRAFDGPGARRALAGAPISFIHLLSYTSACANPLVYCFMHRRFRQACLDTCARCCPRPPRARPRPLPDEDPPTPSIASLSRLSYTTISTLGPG
# Summary of the method: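 This was competition binding with tracer [125I]-CCK8S (200 pM solution added), run for 150 min at 21±3° on male CD1 mouse cortex membranes in pH 7.2 HEPES buffer with bacitracin. Filtration then gamma counting gave bound radioactivity. L-365,260 set the non-specific level.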
# CCKA = molecular target: T2, CCKA (Cavia porcellus, UniProt Q63931); experiment: CCKA radioligand binding assay in guinea-pig pancreas membranes ([125I]-CCK8(S)); conditions: PD134,308 present, 150 minutes at 21±3°; for Ki: read-out: CCKA pKi (converted)
# T2 construct: The pancreatata were homogenised in 40 ml ice-cold HEPES buffer using a polytron; from tissue; host or cells: pancreas membranes of male Dunkin Hartley guinea-pigs
# T2 sequence (Q63931 1-430): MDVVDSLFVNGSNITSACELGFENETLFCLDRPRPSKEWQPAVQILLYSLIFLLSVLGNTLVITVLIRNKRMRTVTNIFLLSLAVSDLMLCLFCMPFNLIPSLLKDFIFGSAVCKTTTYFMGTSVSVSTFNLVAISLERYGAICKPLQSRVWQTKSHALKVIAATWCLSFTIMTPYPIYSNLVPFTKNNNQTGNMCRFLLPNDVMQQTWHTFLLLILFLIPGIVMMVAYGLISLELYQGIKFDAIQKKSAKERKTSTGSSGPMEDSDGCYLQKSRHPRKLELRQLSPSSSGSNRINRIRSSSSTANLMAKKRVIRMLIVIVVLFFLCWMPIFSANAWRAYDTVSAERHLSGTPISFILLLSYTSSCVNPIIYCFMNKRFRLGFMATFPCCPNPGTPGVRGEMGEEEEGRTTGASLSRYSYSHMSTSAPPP
# Summary of the method: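 Competition for [125I]-CCK8(S) (added as […] solution) ran for 150 min at 21±3° in HEPES pH 7.2. Membranes came from male guinea-pig pancreas at 1 mg/ml original wet weight, with 0.375 μM PD134,308 in the suspension. Filter-bound counts were gamma-counted; 100 nM L-364,718 (added solution) defined non-specific binding.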
# gastrin = molecular target: T3, gastrin (Rattus norvegicus, UniProt P30553); experiment: gastrin antagonist activity in an immature rat stomach assay (pentagastrin-stimulated acid secretion); conditions: cumulative pentagastrin dose-response curves after 60 min with drug; for Kb: read-out: Gastrin pKB (converted)
# T3 construct: The stomach was lowered into a jacketed organ bath containing 40 ml of buffered solution; from tissue; host or cells: isolated perfused whole stomach of immature rats (ca. 21 days old)
# T3 sequence (P30553 1-452): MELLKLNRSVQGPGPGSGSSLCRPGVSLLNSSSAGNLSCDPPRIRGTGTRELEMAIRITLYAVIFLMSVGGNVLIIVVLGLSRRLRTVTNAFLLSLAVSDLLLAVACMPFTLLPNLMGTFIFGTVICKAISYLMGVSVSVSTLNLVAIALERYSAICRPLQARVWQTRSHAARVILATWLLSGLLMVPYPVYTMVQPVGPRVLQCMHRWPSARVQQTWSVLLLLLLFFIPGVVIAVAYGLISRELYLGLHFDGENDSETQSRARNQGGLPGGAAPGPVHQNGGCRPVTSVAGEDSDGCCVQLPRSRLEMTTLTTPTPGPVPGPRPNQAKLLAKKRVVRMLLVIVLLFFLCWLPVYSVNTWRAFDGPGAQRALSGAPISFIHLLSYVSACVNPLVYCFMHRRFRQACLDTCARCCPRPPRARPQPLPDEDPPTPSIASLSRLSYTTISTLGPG
# Summary of the method: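 Isolated lumen-perfused immature rat stomach (33-50 g, ca. 21 days) in 37° organ bath with 3×10^-8 M 5-methylfurmethide; acid secretion read by pH electrode in perfusate. Compound added to serosal bath after 120 min stabilisation; cumulative pentagastrin dose-response curves begun 60 min later and analysed by the Black et al. method.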
Compound,Ki (CCKB receptor),Ki (CCKA),Kb (gastrin),CCKB pKi (CCKB receptor),CCKA pKi (CCKA),Gastrin pKB (gastrin)
"C[C@H](NC(=O)c1cc2cc[nH]c2cc1C(=O)NCC12CC3CC(CC(C3)C1)C2)C(=O)Nc1cc(C(=O)O)cc(C(=O)O)c1 [Example 47, 5-(1S-(3,5-dicarboxyphenylaminocarbonyl)-ethylaminocarbonyl)-6-(1-adamantanemethylaminocarbonyl)-indole]",158 nM,6310 nM,5.01 nM,,,
"5-(1S-(3,5-dicarboxyphenylaminocarbonyl)-2-phenylethylaminocarbonyl)-6-(cycloheptanemethylaminocarbonyl)-indole and regioisomer with substituents at positions 5 and 6 reversed [Example 42]",,,,7.8,5.5,9.3
"O=C(O)c1cc(NC(=O)[C@H](Cc2ccccc2)NC(=O)c2cc3[nH]cnc3cc2C(=O)NCC23CC4CC(CC(C4)C2)C3)ccc1F [Example 75, 5-(1S-(3-carboxy-4-fluoro-phenylaminocarbonyl)-2-phenylethylaminocarbonyl)-6-(1-adamantanemethylaminocarbonyl)-benzimidazole]",,,,7.8,6.1,7.7
"Cn1cnc2cc(C(=O)N[C@@H](Cc3ccccc3)C(=O)Nc3cc(C(=O)O)cc(C(=O)O)c3)c(C(=O)NCC34CC5CC(CC(C5)C3)C4)cc21 [Example 74, N-methyl-5-(1S-(3,5-dicarboxyphenylaminocarbonyl)-2-phenylethylaminocarbonyl)-6-(1-adamantanemethylaminocarbonyl)-benzimidazole]",,,,7.6,5.3,9.0
"5-(1S-(3,5-dicarboxyphenylaminocarbonyl)-2-phenylethylaminocarbonyl)-6-(1-adamantanemethylaminocarbonyl)-2,3-dihydro-benzofuran [Example 123]",,,,7.9,6.3,8.5
"O=C(O)c1cc(NC(=O)[C@H](Cc2ccccc2F)NC(=O)c2cc3[nH]cnc3cc2C(=O)NCC2CCCCCC2)cc(C(=O)O)c1 [Example 70, 5-(1S-(3,5-dicarboxyphenylaminocarbonyl)-2-(2-fluorophenyl)ethylaminocarbonyl)-6-(cycloheptanemethylaminocarbonyl)-benzimidazole]",7.94 nM,7940 nM,15.8 nM,,,
"5-(1S-(3,5-dicarboxyphenylaminocarbonyl)-2-(4-aminophenyl)ethylaminocarbonyl)-6-(1-adamantanemethylaminocarbonyl)-indole and regioisomer with substituents at positions 5 and 6 reversed [Example 31]",,,,7.9,5.5,8.9
"CC(C)(C)C(=O)OCOC(=O)c1cc(NC(=O)[C@H](Cc2ccccc2)NC(=O)c2cc3cc[nH]c3cc2C(=O)NCC23CC4CC(CC(C4)C2)C3)cc(C(=O)OCOC(=O)C(C)(C)C)c1 [Example 33, 5-(1S-(3,5-dipivaloyloxymethyloxycarbonylphenylaminocarbonyl)-2-phenylethylaminocarbonyl)-6-(1-adamantanemethylaminocarbonyl)-indole]",2510 nM,6310 nM,20 nM,,,

# Other lines, results leading:
Ki (CCKB receptor),Ki (CCKA),Kb (gastrin),CCKB pKi (CCKB receptor),CCKA pKi (CCKA),Gastrin pKB (gastrin),Compound
398 nM,3160 nM,200 nM,,,,"O=C(NCC12CC3CC(CC(C3)C1)C2)c1cc2ccccc2cc1C(=O)N1CCC[C@@H]1C(=O)O [Example 3, 3-(2R-carboxypyrrolidino-carbonyl)-2-(1-adamantanemethylaminocarbonyl)-naphthalene]"
,,,8.5,5.6,9.2,"5-(1S-(3,5-dicarboxyphenylaminocarbonyl)-2-(2-fluorophenyl)ethylaminocarbonyl)-6-(1-adamantanemethylaminocarbonyl)-indole and regioisomer with substituents at positions 5 and 6 reversed [Example 27]"
,,,8.1,< 5.0,8.2,"O=C(O)c1cc(NC(=O)[C@H](Cc2ccccc2)NC(=O)c2ccc3[nH]cnc3c2C(=O)NCC23CC4CC(CC(C4)C2)C3)cc(C(=O)O)c1 [Example 112, 5-(1S-(3,5-dicarboxyphenylaminocarbonyl)-2-phenylethylaminocarbonyl)-4-(1-adamantanemethylaminocarbonyl)-benzimidazole]"
,,,8.3,5.1,8.9,"O=C(O)c1cc(NC(=O)[C@H](Cc2ccccc2Cl)NC(=O)c2cc3[nH]cnc3cc2C(=O)NCC23CC4CC(CC(C4)C2)C3)cc(C(=O)O)c1 [Example 135, 5-(1S-(3,5-dicarboxyphenylaminocarbonyl)-2-(2-chlorophenyl)ethylaminocarbonyl)-6-(1-adamantanemethylaminocarbonyl)-benzimidazole]"
1580 nM,1580 nM,398 nM,,,,"COC(=O)[C@H]1CCCN1C(=O)c1cc2ccccc2cc1C(=O)NCC12CC3CC(CC(C3)C1)C2 [Example 7, 2-(2R-methoxycarbonylpyrrolidino-carbonyl)-3-(1-adamantanemethylaminocarbonyl)-naphthalene]"
,,,8.5,5.6,9.0,"3-(1S-(3,5-dicarboxyphenylaminocarbonyl)-2-phenyl ethylaminocarbonyl)-2-(1-adamantanemethylaminocarbonyl)-5-aminonaphthalene [Example 116]"
,,,6.7,5.1,7.1,"5-(1S-(3,5-dicarboxyphenylaminocarbonyl)-2-phenylethylaminocarbonyl)-6-(2,2-dimethylpropylaminocarbonyl)-indole and regioisomer with substituents at positions 5 and 6 reversed [Example 46]"
5010 nM,1000 nM,1260 nM,,,,"COC(=O)[C@@H](C)NC(=O)c1cc2ccccc2cc1C(=O)NCC12CC3CC(CC(C3)C1)C2 [Example 8, 2-(1R-methoxycarbonylethylamino-carbonyl)-3-(1-adamantanemethylaminocarbonyl)-naphthalene]"
3160 nM,12600 nM,1000 nM,,,,"COC(=O)[C@H](C)NC(=O)c1cc2ccccc2cc1C(=O)NCC12CC3CC(CC(C3)C1)C2 [Example 2, 2-(1S-methoxycarbonyl-ethylaminocarbonyl)-3-(1-adamantanemethylaminocarbonyl)-naphthalene]"
,,,6.9,5.1,7.5,"5-(1R-(3,5-dicarboxyphenylaminocarbonyl)-ethylaminocarbonyl)-6-(cycloheptanemethylaminocarbonyl)-indole and regioisomer with substituents at positions 5 and 6 reversed [Example 59]"
